Measured values reported in paper PMC10794144, “A novel antibiotic class targeting the lipopolysaccharide transporter” (Nature, 2024).
In brackets after ≈: the same amount, converted by molar mass.

Key:
[1] = system: A. baumannii; test: microbe, parasite or virus in culture
Experimental: (§1) MIC determinations were performed using the broth microdilution method and in line with CLSI guidelines M07 and M100 (refs. [37],[38]). Bacterial inocula were prepared by diluting a 0.5 McFarland suspension in CAMHB or lysogeny broth (LB) specifically for A. baylyi isolates. […] MIC values of all of the tested antibiotics were read as the lowest compound concentration inhibiting bacterial growth by naked eye or beyond which the OD600 ceased to decrease.

[2] = system: E. coli ATCC 25922; test: microbe, parasite or virus in culture
Experimental: as §1

CN1C(=O)[C@H](CCCCN)NC(=O)[C@H](CCCN)NCc2cccnc2Sc2c(Cl)ccc(Cl)c2CNC(=O)[C@@H]1Cc1c[nH]c2ccccc12 [RO7075573]
MIC 80% ([1]; ROB08708, Study LGC293598): ≤0.06 µg/mL
MIC 100% ([1]; ROB08708, Study LGC293598): >64 µg/mL
MIC 80% ([1]; ROB08708, Study LGC294355): 0.12 µg/mL (≈ 0.162 µM)
MIC 100% ([1]; ROB08708, Study LGC294355): >64 µg/mL
MIC 80% ([1]; ROB08708, Study LGC295147): 0.12 µg/mL (≈ 0.162 µM)
MIC 100% ([1]; ROB08708, Study LGC295147): 64 µg/mL (≈ 86.5 µM)
MIC 80% ([1]; ROB08708, Study LGC296813): 0.12 µg/mL (≈ 0.162 µM)
MIC 100% ([1]; ROB08708, Study LGC296813): >64 µg/mL
MIC 80% ([1]; ROB08708, Study LGC299544): 0.12 µg/mL (≈ 0.162 µM)
MIC 100% ([1]; ROB08708, Study LGC299544): 64 µg/mL (≈ 86.5 µM)
MIC 80% ([1]; ROB08708, Study LGC301026): 0.12 µg/mL (≈ 0.162 µM)
MIC 100% ([1]; ROB08708, Study LGC301026): >64 µg/mL
MIC 80% ([1]; ROB08708, Study LGC308175): ≤0.06 µg/mL
MIC 100% ([1]; ROB08708, Study LGC308175): 64 µg/mL (≈ 86.5 µM)
MIC 80% ([1]; ROB08708, Study ROC010): 0.12 µg/mL (≈ 0.162 µM)
MIC 100% ([1]; ROB08708, Study ROC010): 16 µg/mL (≈ 21.6 µM)
MIC 80% ([1]; ROB08708, Study ROC012): 0.12 µg/mL (≈ 0.162 µM)
MIC 100% ([1]; ROB08708, Study ROC012): 64 µg/mL (≈ 86.5 µM)
MIC 80% ([1]; ROB08709, Study LGC281440): 0.12 µg/mL (≈ 0.162 µM)
MIC 100% ([1]; ROB08709, Study LGC281440): 16 µg/mL (≈ 21.6 µM)
MIC 80% ([1]; ROB08709, Study LGC282160): 0.12 µg/mL (≈ 0.162 µM)
MIC 100% ([1]; ROB08709, Study LGC282160): >64 µg/mL
MIC 80% ([1]; ROB08709, Study LGC284879): 0.25 µg/mL (≈ 0.338 µM)
MIC 100% ([1]; ROB08709, Study LGC284879): >64 µg/mL
MIC 80% ([1]; ROB08709, Study LGC285582): 0.12 µg/mL (≈ 0.162 µM)
MIC 100% ([1]; ROB08709, Study LGC285582): 64 µg/mL (≈ 86.5 µM)
MIC 80% ([1]; ROB08709, Study LGC286210): 0.12 µg/mL (≈ 0.162 µM)
MIC 100% ([1]; ROB08709, Study LGC286210): 64 µg/mL (≈ 86.5 µM)
MIC 80% ([1]; ROB08709, Study LGC293598): 0.12 µg/mL (≈ 0.162 µM)
MIC 100% ([1]; ROB08709, Study LGC293598): >64 µg/mL
MIC 80% ([1]; ROB08709, Study LGC294355): 0.12 µg/mL (≈ 0.162 µM)
MIC 100% ([1]; ROB08709, Study LGC294355): >64 µg/mL
MIC 80% ([1]; ROB08709, Study LGC295147): 0.12 µg/mL (≈ 0.162 µM)
MIC 100% ([1]; ROB08709, Study LGC295147): 64 µg/mL (≈ 86.5 µM)
MIC 80% ([1]; ROB08709, Study LGC296813): 0.12 µg/mL (≈ 0.162 µM)
MIC 100% ([1]; ROB08709, Study LGC296813): 64 µg/mL (≈ 86.5 µM)
MIC 80% ([1]; ROB08709, Study LGC299544): 0.25 µg/mL (≈ 0.338 µM)
MIC 100% ([1]; ROB08709, Study LGC299544): 64 µg/mL (≈ 86.5 µM)
MIC 80% ([1]; ROB08709, Study LGC301026): 0.12 µg/mL (≈ 0.162 µM)
MIC 100% ([1]; ROB08709, Study LGC301026): 64 µg/mL (≈ 86.5 µM)
MIC 80% ([1]; ROB08709, Study LGC308175): 0.12 µg/mL (≈ 0.162 µM)
MIC 100% ([1]; ROB08709, Study LGC308175): >64 µg/mL
MIC 80% ([1]; ROB08709, Study ROC010): 0.25 µg/mL (≈ 0.338 µM)
MIC 100% ([1]; ROB08709, Study ROC010): 64 µg/mL (≈ 86.5 µM)
MIC 80% ([1]; ROB08709, Study ROC012): 0.25 µg/mL (≈ 0.338 µM)
MIC 100% ([1]; ROB08709, Study ROC012): 64 µg/mL (≈ 86.5 µM)
MIC 80% ([1]; ROB08710, Study LGC281440): 0.25 µg/mL (≈ 0.338 µM)
MIC 100% ([1]; ROB08710, Study LGC281440): 8 µg/mL (≈ 10.8 µM)
MIC 80% ([1]; ROB08710, Study LGC282160): 0.25 µg/mL (≈ 0.338 µM)
MIC 100% ([1]; ROB08710, Study LGC282160): 64 µg/mL (≈ 86.5 µM)
MIC 80% ([1]; ROB08710, Study LGC284879): 0.25 µg/mL (≈ 0.338 µM)
MIC 100% ([1]; ROB08710, Study LGC284879): >64 µg/mL
MIC 80% ([1]; ROB08710, Study LGC285582): 0.25 µg/mL (≈ 0.338 µM)
MIC 100% ([1]; ROB08710, Study LGC285582): 64 µg/mL (≈ 86.5 µM)
MIC 80% ([1]; ROB08710, Study LGC286210): 0.12 µg/mL (≈ 0.162 µM)
MIC 100% ([1]; ROB08710, Study LGC286210): 64 µg/mL (≈ 86.5 µM)
MIC 80% ([1]; ROB08710, Study LGC293598): 0.12 µg/mL (≈ 0.162 µM)
MIC 100% ([1]; ROB08710, Study LGC293598): >64 µg/mL
MIC 80% ([1]; ROB08710, Study LGC294355): 0.5 µg/mL (≈ 0.676 µM)
MIC 100% ([1]; ROB08710, Study LGC294355): >64 µg/mL
MIC 80% ([1]; ROB08710, Study LGC295147): 0.12 µg/mL (≈ 0.162 µM)
MIC 100% ([1]; ROB08710, Study LGC295147): 32 µg/mL (≈ 43.3 µM)
MIC 80% ([1]; ROB08710, Study LGC296813): 0.12 µg/mL (≈ 0.162 µM)
MIC 100% ([1]; ROB08710, Study LGC296813): 64 µg/mL (≈ 86.5 µM)
MIC 80% ([1]; ROB08710, Study LGC299544): 0.5 µg/mL (≈ 0.676 µM)
MIC 100% ([1]; ROB08710, Study LGC299544): 64 µg/mL (≈ 86.5 µM)
MIC 80% ([1]; ROB08710, Study LGC301026): 0.12 µg/mL (≈ 0.162 µM)
MIC 100% ([1]; ROB08710, Study LGC301026): 64 µg/mL (≈ 86.5 µM)
MIC 80% ([1]; ROB08710, Study LGC308175): 0.12 µg/mL (≈ 0.162 µM)
MIC 100% ([1]; ROB08710, Study LGC308175): 32 µg/mL (≈ 43.3 µM)
MIC 80% ([1]; ROB08710, Study ROC010): 0.25 µg/mL (≈ 0.338 µM)
MIC 100% ([1]; ROB08710, Study ROC010): 0.5 µg/mL (≈ 0.676 µM)
MIC 80% ([1]; ROB08710, Study ROC012): 0.25 µg/mL (≈ 0.338 µM)
MIC 100% ([1]; ROB08710, Study ROC012): 32 µg/mL (≈ 43.3 µM)
Fold more potent than RO7036668 ([1]; panel of A. baumannii): 4- to 64 fold
MIC ([2]; CAMHB, mode of at least three replicates (RO7036668 one replicate)): >64 µg/mL
MIC ([2]; Escherichia coli, ATCC25922): > 64 µg/mL
MIC 100% ([2]; Study LGC281440): >64 µg/mL
MIC 100% ([2]; Study LGC282160): >64 µg/mL
MIC 100% ([2]; Study LGC284879): >64 µg/mL
MIC 100% ([2]; Study LGC285582): >64 µg/mL
MIC 100% ([2]; Study LGC286210): >64 µg/mL
MIC 100% ([2]; Study LGC293598): >64 µg/mL
MIC 100% ([2]; Study LGC294355): >64 µg/mL
MIC 100% ([2]; Study LGC295147): >64 µg/mL
MIC 100% ([2]; Study LGC296813): >64 µg/mL
MIC 100% ([2]; Study LGC299544): >64 µg/mL
MIC 100% ([2]; Study LGC301026): >64 µg/mL
MIC 100% ([2]; Study LGC308175): >64 µg/mL
MIC 100% ([2]; Study ROC010): >64 µg/mL
MIC 100% ([2]; Study ROC012): >64 µg/mL
